Results from publication PMC10907374, “G2019S selective LRRK2 kinase inhibitor abrogates mitochondrial DNA damage” (NPJ Parkinson's Disease, 2024).

Columns and labels:
Assay type in all cases: cell-based, human
[1] = test system: LRRK2^G2019S/G2019S KI HEK293 cells; test: Mitophagy (Mtphagy dye / Lyso dye live cell imaging) in LRRK2 G2019S/G2019S KI HEK293 cells; conditions: 100 nM 2 h pre-treatment; for basal levels of mitophagy: Mitophagy dye intensity or co-localization; for FCCP-stimulated mitophagy defect: then 20 μM FCCP 3 h
Experimental: Thirty-five mm cell culture dishes (Cellvis, D35-20-1.5-N) were coated with poly-D-lysine (Sigma-Aldrich, P7280-5MG) for 5 min, washed with cell culture grade water (Sigma-Aldrich, W3500), and allowed to dry for at least 1 h before plating. LRRK2^G2019S/G2019S KI HEK293 and wild-type cells were passaged as described above and plated at 300,000 cells per well on poly-D-lysine-coated dishes. […] Following this, cells were washed three times with serum-free medium, and a working solution of Mtphagy dye (Dojindo, MD-01) was prepared in serum-free medium according to manufacturer protocols. Cultures were incubated with Mtphagy dye for 30 min, followed by three washes with serum-free medium. Complete medium was used to prepare a 20 µM FCCP (Abcam, ab120081) or DMSO control treatment solution, which was used to treat cells for 3 h. Following treatment, cells were then washed 3 times with serum-free medium, and a working solution of Lyso dye (Dojindo, MD-01) was prepared in serum-free medium and used to treat cells for 30 min. Complete medium lacking phenol red was prepared for use in confocal live cell imaging by combining phenol red-free DMEM/F-12 (Fisher Scientific, 21-041-025), FBS (VWR, 97068-085), and penicillin-streptomycin (VWR, 45000-652). Following Lyso dye treatment, cultures were washed three times with phenol red-free medium, followed by adding fresh phenol red-free medium to cell culture dishes. MitoBright LT Deep Red (Dojindo, MT12-12) was diluted in growth medium to prepare a 0.1 μmol/l solution and was used to treat cells for 15 min for total mitochondrial staining. Live cell imaging (5% CO2, 37 °C) was performed using a Zeiss LSM 880 Confocal Laser Scanning Microscope with Zen Black software. On average, ~70 cells were analyzed for each condition per each experimental replicate.
Following imaging, files were processed using Zen Blue software, and TIFF files of each channel were obtained for analysis. ImageJ was used to obtain readouts for image analysis. All images were converted to 8-bit format. For each respective image, the Lyso dye channel was used to create a mask delineating each lysosomal focus as a region of interest (ROI). Thresholding parameters were adjusted between biological replicates as required to ensure that the Lyso dye ROI encompassed all lysosome foci appropriately, and this was used to create a mask. This was then applied to the corresponding Mtphagy dye channel image, allowing collection of Mtphgy fluorescence intensity readouts for each lysosomal focus. Outliers were removed using Prism software (GraphPad) with the coefficient of removal set to 0.2%. Data was thresholded to exclude lysosomes not containing mitochondria by excluding fluorescence values with intensities equal to or below background levels. The number of ROIs remaining after thresholding was used to quantify lysosomes containing fluorescing mitochondria (mitolysosomes). Fluorescence intensity values for all mitolysosomes per condition per biological replicate were averaged to obtain a value of mitophagy fluorescence intensity per mitolysosome. For each replicate, all values of average mitolysosome fluorescence intensity were normalized to wild-type (vehicle treated) levels for the given replicate.

[2] = test system: healthy control LCLs; test: Mito DNADX mtDNA damage and mtDNA copy number in healthy control-derived LCLs; conditions: 10 and 100 nM, 2 h
Experimental: (§1) PD patient G2019S LRRK2 (n = 2) and healthy subject control (n = 2)-derived LCLs were obtained from the NINDS Coriell biorepository (ID numbers are ND00011, ND00264, ND01618, ND02559). There was not a statistical difference in the ages between the PD patient and healthy control subjects (p = 0.92). LCLs were cultured at 37 °C, 5% CO2, in RPMI-1640 (Sigma-Aldrich, R8758), 15% heat-inactivated fetal bovine serum (VWR Seradigm, 97068-091) and 0.5% Penicillin/Streptomycin (Corning, 30-002-CI). […] All in vitro experiments were repeated at least three times from distinct samples.
(§2) The tool compound EB-42168 was discovered as part of a small molecule discovery program aimed at identifying LRRK2 kinase inhibitors that are selective for the pathogenic G2019S LRRK2 variant. […] MLi‐2 inhibits WT LRRK2 ~1000‐fold more than EB‐42168[20].
(§3) Cells were collected and the nuclei and mitochondria were isolated as previously described. DNA was extracted from LRRK2-WT and G2019S-LRRK2 cells, and wild-type and LRRK2^G2019S/G2019S KI cells using QuickGene DNA Whole Blood Kit L (Autogen, fk-dbl). PD patient LRRK2 G2019S and healthy subject control-derived LCL DNA was extracted using the QuickGene DNA Tissue Kit L (Autogen, fk-dtl), utilizing a semi-automated system (Autogen, QuickGene-610L). For the Autogen system, the pellet was resuspended in 2 ml of 1X PBS, and the standard manufacturer’s protocol was conducted as if the cell suspension was whole blood. DNA was eluted with EDTA-free buffer, and quality was assessed using a Spectradrop microvolume microplate (Molecular Devices). Double-stranded DNA was quantified using Quant-iT Picogreen dsDNA assay (Thermo Fisher) as previously described.
(§4) DNA damage in the mitochondrial genome was measured utilizing Mito DNADX, an assay that we recently developed and described, currently the most robust way of measuring damage in mtDNA[39],[82]. The Mito DNADX assay combines optimized polymerase chain reaction (PCR) parameters using a high-fidelity DNA polymerase and a fluorescent dye that binds to double-stranded DNA that permits the real-time quantification of DNA damage in distinct loci in a 96-well platform. The premise of the Mito DNADX assay involves amplification of a specific mitochondrial PCR fragment in which less PCR product will be amplified when mtDNA damage or lesions block the ability of the DNA polymerase to replicate. As such, mtDNA damage or mtDNA repair intermediates that slow down or impair DNA polymerase progression will be detected. […] Briefly, 15 ng of DNA was used to amplify long or short amplicons of the mitochondrial genome (as determined by primer sets). […] Average lesion frequency is calculated as described. […] Each biological DNA sample was analyzed in technical triplicate. […]

[3] = test system: heterozygous G2019S LRRK2 PD patient-derived LCLs; test: Mito DNADX mtDNA damage and mtDNA copy number in G2019S LRRK2 PD patient-derived LCLs; conditions: 10 and 100 nM, 2 h
Experimental: as §1, §2, §3, §4

[4] = test system: wild-type HEK293 cells; test: Mito DNADX mtDNA damage and mtDNA copy number in wild-type HEK293 cells; conditions: 10 nM-1 μM, 2 h
Experimental: Cells were plated at a density of 0.3 × 10^6 cells in a 6-well dish and treated at ~40–50% confluency. At the time of harvest, cells were collected and either protein collected or DNA extracted as described below.
Following this treatment, “Post-treatment recovery 0 h” samples were collected immediately, or vehicle or MLi-2-containing treatment medium was washed out and replaced with fresh medium and incubated for 2 additional hours and then collected as “Post-treatment recovery 2 h” samples. Isolation, quantitation, and mtDNA damage was performed as described below. […]
Cells were collected and the nuclei and mitochondria were isolated as previously described. […] DNA was eluted with EDTA-free buffer, and quality was assessed using a Spectradrop microvolume microplate (Molecular Devices). Double-stranded DNA was quantified using Quant-iT Picogreen dsDNA assay (Thermo Fisher) as previously described.
DNA damage in the mitochondrial genome was measured utilizing Mito DNADX, an assay that we recently developed and described, currently the most robust way of measuring damage in mtDNA[39],[82]. The Mito DNADX assay combines optimized polymerase chain reaction (PCR) parameters using a high-fidelity DNA polymerase and a fluorescent dye that binds to double-stranded DNA that permits the real-time quantification of DNA damage in distinct loci in a 96-well platform. […]

| SMILES | basal levels of mitophagy [1] | FCCP-stimulated mitophagy defect [1] | mtDNA copy number [2] | mtDNA damage [2] | mtDNA copy number [3] | mtDNA damage [3] | mtDNA copy number [4] |
| --- | --- | --- | --- | --- | --- | --- | --- |
| CC1=C(C(=O)Nc2ccc3[nH]nc(-c4ccnc(N5CCOCC5)c4)c3c2)C(C)(C)n2nnnc2N1C [EB-42168] | did not impact | failed to rescue | No differences | without an effect | No differences | restored to control levels | no effect |
| C[C@@H]1CN(c2cc(-c3n[nH]c4ccc(OC5(C)CC5)cc34)ncn2)C[C@H](C)O1 [MLi-2, reference compound] | did not impact | failed to rescue | No differences | no effect | No differences | reversed mtDNA damage | did not change |
